Data on one compound can be found in US9845487B2, “Selective chromogenic medium” (SZEGEDI TUDOMÁNYEGYETEM, priority 2013, dated 2017).

One experiment relates to Saccharomyces. Description: growth of winemaking yeasts on selective medium with cycloheximide. Format: cell-based. As to conditions: in the concentration used by the inventors. From the text:
(§1) The procedure requires no sterile laboratory conditions and only little attention is to be paid to ensure that the right sample is placed on the surface of the culture medium. The culture medium contains components easily available. In addition to components used for growth, the medium contains antibiotics inhibiting the growth of yeasts, e.g.—other culture media similar to selective Brettanomyces—cycloheximide as well. This antibiotic is used for the identification of different species in yeast diagnostics.
(§2) In the following examples, unless indicated otherwise, the following concentrations and compositions were applied. Composition of medium that was suitable for growing yeast cells was the following: 1% glucose, 0.67% “yeast nitrogen base”, 2% agar, which was made selectively by using 5 μg/ml cycloheximide as an antibiotics for blocking the growth of Saccharomyces strains. Azure-II-eosinate was used in a 30 μg/ml concentration.

Experiment [1] concerns species causing the degradation of wine. Kind of experiment: growth of wine-degrading yeasts on selective medium with cycloheximide. Format: cell-based. The note with it: in the concentration used by the inventors.
Excerpt: as §1, §2

For `C[C@@H]1C[C@@H]([C@H](O)CC2CC(=O)NC(=O)C2)C(=O)[C@@H](C)C1` [cycloheximide], the “growth inhibition of winemaking yeasts” value in the experiment with Saccharomyces is given as “prevents the growth of most yeasts playing a role in wine-making”. The “tolerance by wine-degrading yeast species” value in experiment [1] is “still tolerated”.
